In brackets after ≈: the same amount, converted by molar mass. Where two headings read alike, the source gives them in different places.
What was measured:
[1] = tested on: Haem.infl. A 1030; experiment: micro serial dilution test; type: cell-based; settings: 18 h, micro serial dilution (in brackets), about 18 hours, 30° C. or 37° C.; read-out: minimal inhibitory concentration (MIC)
[2] = tested on: Prot.morg. 2241; experiment: agar serial dilution test; type: cell-based; settings: 24 h, agar serial dilution, 24 hours, 37° C.; read-out: minimal inhibitory concentration (MIC)
[3] = tested on: Dipl.pneum. L 54; experiment: agar serial dilution test; type: cell-based, Diplococcus pneumoniae; settings: Streptococcus pneumoniae; agar serial dilution, 24 hours, 37° C.; read-out: minimal inhibitory concentration (MIC)
[4] = tested on: Bac.Subt.ATCC 6633; experiment: agar serial dilution test; type: cell-based, Bacillus subtilis; settings: Bacillus subtilis, ATCC6633, 24 h, agar serial dilution, 24 hours, 37° C.; read-out: minimal inhibitory concentration (MIC)
[5] = tested on: Staph.aureus A 321; experiment: agar serial dilution test; type: cell-based, Staphylococcus aureus; settings: Staphylococcus aureus, A321, 24 h, agar serial dilution, 24 hours, 37° C.; read-out: minimal inhibitory concentration (MIC)
[6] = tested on: Past.multo. A 723; experiment: agar serial dilution test; type: cell-based, Pasteurella multocida; settings: Pasteurella multocida; agar serial dilution, 24 hours, 37° C.; read-out: minimal inhibitory concentration (MIC)
[7] = tested on: Prot.mirab. A 1200; experiment: agar serial dilution test; type: cell-based, Proteus mirabilis; settings: Proteus mirabilis, 24 h, agar serial dilution, 24 hours, 37° C.; read-out: minimal inhibitory concentration (MIC)
[8] = tested on: Prot.rettg. A 821; experiment: agar serial dilution test; type: cell-based, Proteus rettgeri; settings: Providencia rettgeri, 24 h, agar serial dilution, 24 hours, 37° C.; read-out: minimal inhibitory concentration (MIC)
[9] = tested on: Strep. faec. L 80; experiment: agar serial dilution test; type: cell-based, Streptococcus faecalis; settings: Enterococcus faecalis; agar serial dilution, 24 hours, 37° C.; read-out: minimal inhibitory concentration (MIC)
[10] = tested on: Salm.typh. R 127; experiment: agar serial dilution test; type: cell-based; settings: 24 h, 37° C., read-out: minimal inhibitory concentration (MIC)
[11] = tested on: Staph.aureus A 2001; experiment: agar serial dilution test; type: cell-based, Staphylococcus aureus; settings: Staphylococcus aureus, A2001, 24 h, agar serial dilution, 24 hours, 37° C.; read-out: minimal inhibitory concentration (MIC)
[12] = tested on: Salm.dubl. P 43; experiment: agar serial dilution test; type: cell-based, Salmonella dublin; settings: Salmonella enterica; agar serial dilution, 24 hours, 37° C.; read-out: minimal inhibitory concentration (MIC)
[13] = tested on: Staph.aureus A 2001; experiment: micro serial dilution test; type: cell-based, Staphylococcus aureus; settings: Staphylococcus aureus, A2001, 18 h, micro serial dilution (in brackets), about 18 hours, 30° C. or 37° C.; read-out: minimal inhibitory concentration (MIC)
[14] = tested on: Pseud.aerug. Wyeth A 1058; experiment: agar serial dilution test; type: cell-based; settings: agar serial dilution, 24 hours, 37° C.; read-out: minimal inhibitory concentration (MIC)
[15] = tested on: Kleb.pneum. A 809; experiment: agar serial dilution test; type: cell-based, Klebsiella pneumoniae; settings: Klebsiella pneumoniae; agar serial dilution, 24 hours, 37° C.; read-out: minimal inhibitory concentration (MIC)
[16] = tested on: Bruc.melit. A 488; experiment: microbe, parasite or virus in culture; type: cell-based; settings: Brucella melitensis, 24 h, read-out: minimal inhibitory concentration (MIC)
[17] = tested on: Esch.coli U 20; experiment: agar serial dilution test; type: cell-based, Escherichia coli; settings: Escherichia coli, U20; agar serial dilution, 24 hours, 37° C.; read-out: minimal inhibitory concentration (MIC)
[18] = tested on: Staph.aureus A 355; experiment: agar serial dilution test; settings: Staphylococcus aureus, A355, 24 h, read-out: minimal inhibitory concentration (MIC), agar serial dilution, 24 hours, 37° C.; penicillinase-producing strain
[19] = tested on: Prot.mirab. L 93; experiment: agar serial dilution test; type: cell-based, Proteus mirabilis; settings: Proteus mirabilis
[20] = tested on: Staph.aureus A 2000; experiment: micro serial dilution test; type: cell-based, Staphylococcus aureus; settings: Staphylococcus aureus, A2000, 18 h, micro serial dilution (in brackets), about 18 hours, 30° C. or 37° C.; read-out: minimal inhibitory concentration (MIC)
[21] = tested on: Staph.aureus A 355; experiment: micro serial dilution test; type: cell-based, Staphylococcus aureus; settings: Staphylococcus aureus, A355; micro serial dilution (in brackets), about 18 hours, 30° C. or 37° C.; penicillinase-producing strain; read-out: minimal inhibitory concentration (MIC)
Text: Two drops of a stock solution of the test compound (antibiotic) in a known concentration were brought into the first hole of a test plate with 9 numbered holes with a sterile Pasteur pipette. After rinsing this pipette three times with a physiological NaCl-solution, two drops of a stock solution of the test organism in a culture medium were brought in all the holes except for hole 8. In the first hole, the solution of the tested compound had been half diluted, then by stirring the liquid in the first hole and adding two drops of this mixture to the second hole and so on until hole 8, dilutions of the test compound solution were obtained in geometrical progression. The hole 9 contained no antibiotic and served for checking the growth of the testogranism in a blank medium. The test plate was incubated at 30° C. or 37° C. for about 18 hours.
^1 Penicillinase-producing strain

[22] = tested on: Prot.mirab. H 3; experiment: agar serial dilution test; type: cell-based, Proteus mirabilis; settings: Proteus mirabilis; agar serial dilution, 24 hours, 37° C.; read-out: minimal inhibitory concentration (MIC)
[23] = tested on: Pseud.aerug. H 10; experiment: agar serial dilution test; type: cell-based; settings: agar serial dilution, 24 hours, 37° C.; read-out: minimal inhibitory concentration (MIC)
[24] = tested on: Staph.aureus A 2000; experiment: agar serial dilution test; type: cell-based, Staphylococcus aureus; settings: Staphylococcus aureus, A2000, 24 h, agar serial dilution, 24 hours, 37° C.; read-out: minimal inhibitory concentration (MIC)
[25] = tested on: Pseud.aerug. 2396; experiment: agar serial dilution test; type: cell-based; settings: agar serial dilution, 24 hours, 37° C.; read-out: minimal inhibitory concentration (MIC)
[26] = tested on: Shig.equir. T 3; experiment: agar serial dilution test; type: cell-based; settings: 24 h, 37° C., read-out: minimal inhibitory concentration (MIC)
[27] = tested on: Strep.haem. A 266; experiment: agar serial dilution test; type: cell-based, Streptococcus haemolyticus; settings: Streptococcus; agar serial dilution, 24 hours, 37° C.; read-out: minimal inhibitory concentration (MIC)
[28] = agar serial dilution, 24 hours, 37° C., read-out: minimal inhibitory concentration (MIC)

SMILES | MIC [1] [mg/L] | MIC [2] [mg/L] | MIC [3] [mg/L] | MIC [4] [mg/L] | MIC [5] [mg/L] | MIC [6] [mg/L] | MIC [7] [mg/L] | MIC [8] [mg/L] | MIC [9] [mg/L] | MIC [10] [mg/L] | MIC [11] [mg/L] | MIC [12] [mg/L] | MIC [14] [mg/L] | MIC [15] [mg/L] | MIC [16] [mg/L] | MIC [17] [mg/L] | MIC [18] [mg/L] | MIC [22] [mg/L] | MIC [23] [mg/L] | MIC [24] [mg/L] | also measured
Cc1noc(C(C(=O)N[C@@H]2C(=O)N3[C@@H]2SC(C)(C)[C@@H]3C(=O)O)c2ccccc2)n1 (mixture of isomers) [Example 6, sodium DL-6-{[α-phenyl-3-methyl-1,2,4-oxadiazol-5-yl-]-acetamido}-penicillanate] | 1.2 | > 100 | 0.06 | 0.03 | 0.25 | 1 | 100 | 3 | 1 | > 100 | 1 | 100 | > 100 | 100 | 1 | 100 | 25 | 100 | > 100 | 1.5 | MIC [13]: 2.5 mg/L; MIC ([19]; 24 h, read-out: minimal inhibitory concentration (MIC), agar serial dilution, 24 hours, 37° C.): 12.5 mg/L; MIC [20]: 23 mg/L; MIC [21]: 125 mg/L; MIC [25]: > 100 mg/L; MIC [26]: 12.5 mg/L
Cc1noc(C(C)C(=O)N[C@@H]2C(=O)N3[C@@H]2SC(C)(C)[C@@H]3C(=O)O)n1 (mixture of isomers) [Example 11H, dl-6[α-methyl-(3-methyl-1,2,4-oxadiazol-5-yl)-acetamido]-penicillanic acid] | 3.7 | > 100 | 0.25 | 0.06 | 0.25 | 1.5 | > 100 | 12.5 | 6 | 100 | 3 | 50 | > 100 | > 100 | 0.25 | ≥ 100 | 12.5 | > 100 | > 100 | 6 | MIC [27]: 0.5 mg/L; MIC [19, 28]: 6 mg/L; MIC [25]: > 100 mg/L; MIC [26]: 25 mg/L
CCc1noc(CC(=O)N[C@@H]2C(=O)N3C(C(=O)O)=C(COC(C)=O)CS[C@H]23)n1 [Example 11L, 7-[(3-ethyl-1,2,4-oxadiazol-5-yl)-acetamido]-cephalosporanic acid] | ≥ 125 | > 100 | 1 (≈ 2.44 µM) | 0.12 (≈ 0.292 µM) | 0.25 (≈ 0.609 µM) | 2 (≈ 4.87 µM) | 25 (≈ 60.9 µM) | 1 (≈ 2.44 µM) | 50 (≈ 122 µM) | 6 (≈ 14.6 µM) | 1 (≈ 2.44 µM) | 3 (≈ 7.31 µM) | > 100 | 1.5 (≈ 3.65 µM) | 6 (≈ 14.6 µM) | 6 (≈ 14.6 µM) | 1 (≈ 2.44 µM) | 50 (≈ 122 µM) | > 100 | 1 (≈ 2.44 µM) | MIC [27]: 0.25 mg/L (≈ 0.609 µM); MIC [19, 28]: 3 mg/L (≈ 7.31 µM); MIC [25]: > 100 mg/L; MIC [26]: 3 mg/L (≈ 7.31 µM)
CCc1noc(C(C)C(=O)N[C@@H]2C(=O)N3[C@@H]2SC(C)(C)[C@@H]3C(=O)O)n1 (stereo partly drawn) [Example 11M, sodium 6-[α-methyl-(3-ethyl-1,2,4-oxadiazol-5-yl)-acetamido]-penicillanate H2 O] | 3.7 | > 100 | 0.5 | 0.06 | 0.12 | 1 | > 100 | 3 | 6 | > 100 | 6 | 50 | > 100 | > 100 | 0.5 | > 100 | 12.5 | > 100 | > 100 | 6 | MIC [27]: 0.5 mg/L; MIC [19, 28]: 25 mg/L; MIC [25]: > 100 mg/L; MIC [26]: 50 mg/L
Cc1nc(CC(=O)N[C@@H]2C(=O)N3[C@@H]2SC(C)(C)[C@@H]3C(=O)O)no1 [Example 13, Sodium 6-[(5-methyl-1,2,4-oxadiazol-3-yl)-acetamido]-penicillanate] | 125 | 100 | 1 | 0.03 | 0.12 | 1 | 25 | 6 | 6 | 25 | 1.5 | 3 | > 100 | > 100 | 3 | 50 | 10 | 100 | > 100 | 1.5 | MIC [27]: 0.03 mg/L; MIC [19, 28]: 3 mg/L; MIC [26]: 3 mg/L
